{
  "source": "patent US11311565B2",
  "about": "“Synergistic nutritional compositions for promoting axonal regeneration” (CELAGENEX RESEARCH (INDIA) PVT. LTD., priority 2020, dated 2022)",
  "assay_type_in_all_cases": "in vivo, Swiss albino mice",
  "key": {"GAP-43": {"tested_on": "GAP-43", "assay": "SCI animal study: fold increase in plasticity protein GAP-43", "details": "animals subjected to SCI, 6 animals per group", "from_the_text": "(§1) The purpose of this study is to evaluate the effect of the test substance in Swiss albino rats.\n(§2) No. of animals: 30 Animals (5 groups of 6 animals each)\n(§3) Group 1 is placebo, Group 2 was given a standard treatment of antithrombotic, antiepileptic, anti-inflammatory and steroid protocol (methylprednisolone) and Group 3, Group 4 and Group 5 served as test substance. Animals were subjected to SCI and outcome measures were monitored."}, "BDNF": {"tested_on": "BDNF", "assay": "SCI animal study: fold increase in plasticity protein BDNF", "details": "animals subjected to SCI, 6 animals per group", "from_the_text": "as §1, §2, §3"}, "NGF": {"tested_on": "NGF", "assay": "SCI animal study: fold increase in plasticity protein NGF", "details": "animals subjected to SCI, 6 animals per group", "from_the_text": "as §1, §2, §3"}, "NTF3": {"tested_on": "NTF3", "assay": "SCI animal study: fold increase in plasticity protein NTF3", "details": "animals subjected to SCI, 6 animals per group", "from_the_text": "as §1, §2, §3"}, "animals subjected to SCI": {"tested_on": "animals subjected to SCI", "assay": "SCI animal study: improvement of limb movements", "details": "baseline is 1", "from_the_text": "as §1, §2, §3"}, "[1]": {"tested_on": "axons crossing denervated side", "assay": "SCI animal study: subjects with >1000 axons crossing denervated side", "details": "animals subjected to SCI; % subjects", "from_the_text": "as §1, §2, §3\n4. Subjects with >1000 axons crossing denervated side—as % subjects"}},
  "data": [
    {"smiles": "N=C(N)NCCCCN.O=S(=O)(O)O", "note": "[Test II, Agmatine Sulphate]", "values": [
      {"measurement": "No. of fold increase in plasticity proteins from baseline: GAP-43", "setting": "GAP-43", "result": 3.44, "unit": "fold"},
      {"measurement": "No. of fold increase in plasticity proteins from baseline: BDNF", "setting": "BDNF", "result": 2.44, "unit": "fold"},
      {"measurement": "No. of fold increase in plasticity proteins from baseline: NGF", "setting": "NGF", "result": 1.69, "unit": "fold"},
      {"measurement": "No. of fold increase in plasticity proteins from baseline: NTF3", "setting": "NTF3", "result": 1.17, "unit": "fold"},
      {"measurement": "Percentage improvement of limb movements to baseline (Baseline as 1)", "setting": "animals subjected to SCI", "result": 0.34},
      {"measurement": "percentage of subjects with >1000 axons crossing denervated side", "setting": "[1]", "result": 18, "unit": "%"}
    ]}
  ]
}
